Measured values reported in paper PMC9232501, “Results of the phase I CCTG IND.231 trial of CX-5461 in patients with advanced solid tumors enriched for DNA-repair deficiencies” (Nature Communications, 2022).
Values joined by “and” are separate entries in the source; they are usually repeats but may differ in a detail not shown here. Equal values may be shown once. “Also recorded” adds a separate entry of the source.

Columns and labels:
[1] = test system: γ-H2AX (double-stranded DNA breaks); assay: γ-H2AX immunofluorescent staining with and without UVA radiation; type: cell-based; conditions: CX5461 10^-8M, 5x10-8M; PDS 20 x 10^-6M
Protocol: Human epidermal keratinocytes (HEKa) cells were sourced from Thermo Fisher Scientific, and were grown in EpiLife™ Medium with HKGS. HAP WT and XPA knockout cell lines (Horizon Discovery) were cultured in IMDM, 10% FCS. Human HCT116 cells, U2OS cells (ATCC) were grown in McCoy’s 5 A medium with 10% FBS and L-glutamine. All cell lines are mycoplasma free and have been authenticated by STR or SNP profiling. CX-5461 was provided by Senhwa Biosciences, Inc. PDS is from Sigma-Aldrich, BRACO-19 from Alfa Chemistry, PhENDC3 is from Sigma-Aldrich, γ -H2AX antibody from Abcam (1:1000 for IF) and CPD antibody (1:1500) from Cosmo Bio Ltd. (Catalog number: CAC-NM-DAD-001). The WST-1 assay was performed as previously described, γ H2AX foci staining was performed as previously described. Immunofluorescence staining of CPD was performed according to the protocol from the manufacturer (Cosmo Bio Ltd).
Supplementary Figures and Tables
Supplementary Figure 1. UVA radiation increased double-stranded DNA breaks and ROS.
Representative pictures of g -H2AX immunofluorescent staining with and without UVA radiation, for […]
condition, quantified in (b) Quantile and mean intensity of g-H2AX level per cell, vertical axis. UV and drug factor conditions, horizontal axis. […] Number of cells as in Figure 5 g (c) The ratio of ROS level measured after UVA irradiation versus before UVA irradiation was calculated. […]

[2] = test system: patients with hematologic malignancies; parameters: method as in PMID 31092402; conditions: cited from earlier work
[3] = test system: U2OS cells; assay: CPD (cyclobutane pyrimidine dimer) immunofluorescence after UVA 125 mJ/cm^2; type: cell-based, Human; conditions: 1 h compound exposure
Protocol: Fig. 5 Comparison of G4 ligand photosensitization. […] Vertical axis, fractional survival, horizontal axis log10 drug concentration (M) (f) Representative images of CPD immunofluorescent staining under UV and drug treatment conditions for U2OS cells, quantified from biological duplicates in (g) (h) Scale bar = 100um. U2OS cells were treated with drug or vehicle control, then immediately irradiated with UVA 125 mJ/cm^2; and fixed 1 h later for immunofluorescence staining with CPD antibody. g Distribution of mean intensity of CPD level per cell (total n = in labels), with two biological repeats per condition. Vertical axis, mean CPD intensity per cell, horizontal axis, conditions (h) WT or KO XPA HAP1 cells assayed for cytotoxicity. Vertical axis, fractional survival (WST-1 assay). The horizontal axis, log10 drug concentration (M). Error bars = standard deviation of the mean. Three biological repeats per condition.
Human epidermal keratinocytes (HEKa) cells were sourced from Thermo Fisher Scientific, and were grown in EpiLife™ Medium with HKGS. HAP WT and XPA knockout cell lines (Horizon Discovery) were cultured in IMDM, 10% FCS. Human HCT116 cells, U2OS cells (ATCC) were grown in McCoy’s 5 A medium with 10% FBS and L-glutamine. All cell lines are mycoplasma free and have been authenticated by STR or SNP profiling. […]

[4] = test system: advanced solid tumors; assay: Efficacy assessment by RECIST 1.1 (best response, ORR, DCR, duration of response); type: in vivo, human; parameters: partial_response_date (time at which PR was documented) / bestchange (best change of target lesions, Figure 3): unit not given here; conditions: for bestchange (best change of target lesions, Figure 3): one value per patient; for time_on_study: individual patients
Protocol: Computed tomography of chest, abdomen, and pelvis was performed at baseline and every 8 weeks and as clinically indicated. All patients who had at least one post-baseline scan were included in efficacy analyses; patients with the non-target disease only were assessed for non-CR/non-PD and PD. Patients were evaluated for CR, PR, SD, or PD as defined by RECIST 1.1[23]. The objective response rate (ORR = CR+PR) and disease control rate (DCR = CR + PR + SD ≥ 6 months) are reported. Duration of response was defined as the time from when CR or PR was first documented until the first date that progressive disease was objectively documented or the time of the last disease assessment.

[5] = BRCA1/2, PALB2 or TP53 germline or somatic mutations
[6] = BRCA1/2 or PALB2 germline or somatic mutations
[7] = dose_level 2, Breast, patient 400006
[8] = dose_level 4, Ovarian, patient 400035
[9] = dose_level 8, Breast, patient 400012
[10] = dose_level 9, Breast, patient 400030

Cc1cnc(CNC(=O)c2c(=O)c3ccc(N4CCCN(C)CC4)nc3n3c2sc2ccccc23)cn1 [CX-5461]
DNA damage (γ-H2AX) in the presence of UVA [1]: synergistically increased; also recorded: markedly increased | dose-limiting toxicities (kind) [2]: palmar–plantar erythrodysesthesia and phototoxicity | dose recommended for further study ([2]; intravenously once every 3 weeks (q3w)): 170 mg/m^2 | potentiation of CPD formation by UVA [3]: strong potentiation | patients with confirmed PR ([4]; 3 breast, 1 ovarian, all with germline DNA-repair abnormalities): Four | overall DCR (CR + PR + SD ≥ 6 months) ([4]; 8/40, 95% CI: 9.1–35.7%): 20% | Best Response Complete Response (CR), N patients ([4]; All treated patients N=40): 0 | Best Response Partial Response (PR), N patients ([4]; All treated patients N=40): 4 | Best Response Progressive Disease (PD), N patients ([4]; All treated patients N=40): 21 | Best Response Stable Disease (SD), N patients ([4]; All treated patients N=40): 11 | Response Duration Median (range), SD ([4]; All treated patients N=40, range 2.3-10.9): 3.6 Mo. | Response Duration Median (range), PR ([4]; All treated patients N=40, range 5.5-8.2): 6.5 Mo. | Best Response Partial Response (PR), N patients [4, 5]: 4 | Best Response Progressive Disease (PD), N patients [4, 5]: 15 | Best Response Stable Disease (SD), N patients [4, 5]: 7 | Response Duration Median (range), PR [4, 5]: 6.5 (5.5-8.2) Mo. | Response Duration Median (range), SD [4, 5]: 3.5 (3-9.2) Mo. | Best Response Partial Response (PR), N patients [4, 6]: 3 | Best Response Progressive Disease (PD), N patients [4, 6]: 12 | Best Response Stable Disease (SD), N patients [4, 6]: 7 | Response Duration Median (range), PR [4, 6]: 6.3 (5.5-6.8) Mo. | Response Duration Median (range), SD [4, 6]: 3.5 (3-9.2) Mo. | bestchange (best change of target lesions, Figure 3) ([4]; DOSE_LEV 0): 27.9 and 20.3 and 4.4 | bestchange (best change of target lesions, Figure 3) ([4]; DOSE_LEV 1): 13.1 and 6 and 1.4 and -27.5 | bestchange (best change of target lesions, Figure 3) ([4]; DOSE_LEV 2): -66.7 and 51.2 and 47.1 | bestchange (best change of target lesions, Figure 3) ([4]; DOSE_LEV 3): 18.9 and 4 and 74.8 | bestchange (best change of target lesions, Figure 3) ([4]; DOSE_LEV 4): -43.4 and 50.8 and 41.7 | bestchange (best change of target lesions, Figure 3) ([4]; DOSE_LEV 5): 17.1 and 6.4 | bestchange (best change of target lesions, Figure 3) ([4]; DOSE_LEV 6): -12.9 and -19.4 and 54 | bestchange (best change of target lesions, Figure 3) ([4]; DOSE_LEV 7): 36.2 and 20.5 and 9.7 | bestchange (best change of target lesions, Figure 3) ([4]; DOSE_LEV 8): 23.1 and 10.8 and 5.6 and 0 and -62.5 and 46.6 | bestchange (best change of target lesions, Figure 3) ([4]; DOSE_LEV 9): 7.7 and -50 | Best Response Progressive Disease (PD), N patients ([4]; Prior PARP Inhibitor N=8): 6 | Best Response Stable Disease (SD), N patients ([4]; Prior PARP Inhibitor N=8): 1 | Best Response Partial Response (PR), N patients ([4]; Prior Platinum N=32): 2 | Best Response Progressive Disease (PD), N patients ([4]; Prior Platinum N=32): 18 | Best Response Stable Disease (SD), N patients ([4]; Prior Platinum N=32): 8 | Responses observed, share of patients ([4]; abstract, primarily in patients with defective homologous recombination): 14% | ORR ([4]; all treated, 4/40, 95% CI: 2.8–23.7): 10% | ORR ([4]; breast, ovarian, pancreas tumor types, 4/29, 95% CI: 3.9–31.7%): 14% | time_on_study ([4]; dose_level 0 (50 mg/m^2 Day 1 & 8)): 4.5667 months and 3.9425 months and 2.037 months and 1.8398 months | time_on_study ([4]; dose_level 1 (100 mg/m^2 Day 1 & 8)): 1.1499 months and 5.5195 months and 3.2526 months | time_on_study ([4]; dose_level 2 (150 mg/m^2 Day 1 & 8)): 10.4476 months and 1.1828 months and 0.7228 months and 0.6899 months | partial_response_date (time at which PR was documented) [4, 7]: 1.643 | partial_response_duration [4, 7]: 6.275 months | time_on_study ([4]; dose_level 3 (200 mg/m^2 Day 1 & 8)): 7.3265 months and 1.1828 months and 0.6899 months and 0.46 months | time_on_study ([4]; dose_level 4 (250 mg/m^2 Day 1 & 8)): 14.7187 months and 1.8398 months and 1.807 months | partial_response_date (time at which PR was documented) [4, 8]: 6.407 | partial_response_duration [4, 8]: 8.246 months | time_on_study ([4]; dose_level 5 (325 mg/m^2 Day 1 & 8)): 1.2485 months and 1.1828 months and 1.0185 months | time_on_study ([4]; dose_level 6 (475 mg/m^2 Day 1 & 8)): 11.039 months and 3.8768 months and 1.8398 months | time_on_study ([4]; dose_level 7 (325 mg/m^2 Day 1, 8 & 15)): 1.8398 months and 1.807 months and 0.8871 months | time_on_study ([4]; dose_level 8 (475 mg/m^2 Day 1, 8 & 15)): 10.809 months and 7.3922 months and 2.1355 months and 2.0698 months and 0.9199 months | partial_response_date (time at which PR was documented) [4, 9]: 3.45 | partial_response_duration [4, 9]: 6.801 months | time_on_study ([4]; dose_level 9 (650 mg/m^2 Day 1, 8 & 15)): 7.8193 months and 2.9897 months and 1.6099 months and 1.577 months and 1.0185 months | partial_response_date (time at which PR was documented) [4, 10]: 1.708 | partial_response_duration [4, 10]: 5.487 months | objective responses in patients who had received prior platinum ([4]; in vivo): 2/32 | patients with durable SD (≥6 months) ([4]; of 11 SD): 4 | Objective response (all PR), patients ([4]; of 32 evaluable patients, best response in target lesions): 4 | shrinkage in target lesions ([4]; one patient, gBRCA2-related pancreatic cancer, best response SD): 13% | best response ([4]; one patient, metastatic breast cancer, germline PALB2 frameshift mutation): confirmed PR
